Assay results as given in patent publication US20120302636A1, “METHOD OF TREATING A DISORDER ASSOCIATED WITH MTP” (priority 2009, published 2012).

Legend:
[1] = Earlier phase 1 single dose clinical study; type: in vivo, human
serum lipid levels = assay: Example 3: serum lipid levels; type: in vivo, human; conditions: active groups
Protocol: Eighteen healthy Japanese males 20 to 35 years of age with a BMI of 18.5 to 25 kg/m^2 participated in the study. The subjects were divided into two dosing groups and within each dosing group, the subjects were divided as follows: 6 subjects received the compound of formula (I) and 3 subjects received placebo. The dosing regimen was oral administration of a tablet twice a day for 14 days after breakfast and dinner (specifically, within 180 minutes of the commencement of eating), in which each tablet contained 1 mg (2 mg/day) or 2 mg (4 mg/day).

[2] = Example 4: pharmacokinetics; type: in vivo, human
Protocol: One hundred five Japanese patients with hyperlipidemia (LDL-C between 140 and 220 mg/dL; TG≦400 mg/dL) participated in the study. […] For the efficacy analysis, 95 subjects were observed (0.5 mg BID: 25 subjects, 1 mg BID: 24 subjects, 2 mg BID: 22 subjects, 4 mg BID: 24 subjects).

[3] = Example 5: pharmacokinetics; type: in vivo, human; conditions: subjects other than two
Protocol: Fifty-two Japanese patients with hyperlipidemia (LDL-C between 140 and 220 mg/dL; TG≦400 mg/dL) participated in the study. […] One group received a fixed dose of 2 mg per tablet through the entire study. The other group received escalating doses of 0.5 mg (weeks 1-4), 1 mg (weeks 5-8), and 2 mg (weeks 9-12). For the efficacy analysis, 50 subjects were observed (25 in the fixed-dose group and 25 in the dose escalation group).
The objective of this study was preliminary evaluation of the efficacy (based on serum lipid levels), safety, and pharmacokinetics of the compound of formula (I) administered orally twice daily after breakfast and supper for 12 weeks as a fixed dose (4 mg/day) or escalating dose (1 mg/day, 2 mg/day and 4 mg/day) regimen in patients with hyperlipidemia.

[4] = Example 6: pharmacokinetics; type: in vivo, human; conditions: 5 to 20 mg QD and BID, healthy males; generally BLQ
Source text: Originally, the study was planned as 4 sequential cohorts of healthy male Caucasian subjects (Cohorts 1 to 4) followed by a cohort of male Caucasian patients with elevated triglycerides (HTG patients, Cohort 5). An additional cohort of healthy male Caucasian subjects (Cohort 4.1) was enrolled into the study (6 cohorts in total). The cohorts were as follows: Cohorts 1 to 4.1 had healthy Caucasian males, aged 18-45 years with a body weight of 60-100 kg and body mass index (BMI) between 19-28 kg/m^2 at screening and fasting triglycerides less than 1.69 mmol/L (less than 150 mg/dL) at the screening visit and Day-3. Cohort 5 had Caucasian males, aged 18-50 years with a body weight of 60-115 kg and BMI less than 35 kg/m^2 at screening and with elevated fasting triglycerides (TG≧1.69 mmol/L and <5.62 mmol/L; ≧150 mg/dL and <500 mg/dL) at the screening visit and Day-3.
The planned treatment for Cohorts 1 to 4 was twice daily administration of 5 mg, 10 mg or 15 mg the compound of formula (I)/placebo, or once daily administration of 30 mg the compound of formula (1)/placebo. […] As only the compound of formula (I) 5 mg capsules were supplied for this study, doses were administered once daily to determine the maximum tolerated dose, and the planned doses for each subsequent cohort were amended based on the safety and tolerability data obtained from the preceding cohort. The dose level and dosing schedule planned for the patients in Cohort 5 was determined by the maximum tolerated dose and dosing schedule as reported from the planned Cohorts 1 to 4.1.
Twelve healthy male Caucasian subjects were enrolled in each of Cohorts 1 to 4.1; dose cohorts were randomized in a ratio 9:3 to receive the compound of formula (I) or placebo, respectively, at the dose level associated with that cohort. Twelve male Caucasian patients with elevated triglycerides were randomized in a ratio of 8:4 to receive the compound of formula (I) or placebo, respectively, at the maximum tolerated dose level and dosing schedule.

[5] = tested on: gut hormone (GLP-1 active, PYY total, GIP total) levels; assay: Example 9: gut hormone levels in obese male subjects; type: in vivo, human; conditions: for increase in GLP-1 active compared with placebo / increase in PYY total compared with placebo: 4 hours after dinner
Protocol: (§1) The study enrolled 16 obese male subjects (18-65 years of age (inclusive), with a body mass index (BMI) >30.0 kg/m^2 and <40.0 kg/m^2) who participated in two treatment periods. During Period 1, 8 subjects were randomized to receive 3.5 mg of the compound of formula (I), and 8 subjects were randomized to receive placebo. The compound of formula (I) or placebo was administered twice daily (BID), 30 minutes after the start of breakfast and dinner, for 10 days. All subjects were discharged from the clinic at the end of Period 1 for a 9±2 day discharge period. Subjects then returned for treatment during Period 2, in which (i) the group previously receiving the compound of formula (I) now received placebo, and (ii) the group previously receiving placebo now received the compound of formula (I), in accordance with the protocol described above.
The primary objective of this study was to examine the change in gut hormone levels. The co-primary endpoints were trough gut hormone (glucagon-like peptide 1 (GLP-1) active, peptide tyrosine tyrosine (PYY) total, and gastric inhibitory polypeptide (GIP) total) levels on Day 10 in each treatment period and the trough gut hormone profile throughout the study. On Day 10 of each treatment period, statistically significant mean increases in GLP-1 active (60%) and PYY total (43%) were observed during administration of the compound of formula (I) compared with placebo, whereas no change in GIP total relative to placebo was found.

[6] = Example 9: caloric/food intake and appetite; type: in vivo, human; conditions: 3.5 mg BID, Day 10/11
Protocol: as §1
A secondary objective of this study was to examine the effects on caloric/food intake and appetite. Therefore, other secondary PD endpoints in this study included caloric intake and meal weight consumed on Day 10 of each period, as well as visual analog scale (VAS) assessments of hunger, prospective consumption, and fullness on Day 10/11 of each period. VAS assessments of thirst and nausea on Day 10/11 of each period were part of the exploratory analysis.

[7] = Example 7: ascending dose study in obese subjects, pharmacokinetics
Protocol: This example involved a clinical study of the compound of formula (I), which was a randomized, double-blind, placebo-controlled, ascending dose study to evaluate the safety, tolerability and pharmacokinetics/pharmacodynamics of the compound of formula (I) tablets administered twice daily for two weeks in obese subjects.
The subjects were separated into four arms of nine (one with ten) test subjects (which were administered the compound of formula (I)) and three placebo subjects.

Which “doses at which diarrhea was observed” value [1] does the source give for `CCOC(=O)C(COC(=O)Cc1ccc(NC(=O)c2ccccc2-c2ccc(C(F)(F)F)cc2)c(C(=O)N(C)C)c1)(C(=O)OCC)c1ccccc1` [compound of formula (I), diethyl 2-((2-(3-(dimethylcarbamoyl)-4-(4′-(trifiuoromethyl)biphenyl-2-ylcarboxamido)phenyl)acetoxy)methyl)-2-phenyl malonate] here?
The value was at least 60 mg.

And the “postprandial elevation in TG, HDL-TG, LDL-TG, Midband-TG, and CM-TG” value (serum lipid levels)?
The value was “inhibited a postprandial elevation”.

What about the “plasma compound of formula (I) concentrations” value ([2]; 0.5 and 1 mg BID, not quantifiable) of the same compound?
The value was under 0.3 ng/mL.

What about the “plasma compound of formula (I) concentrations” value ([2]; 2 and 4 mg BID) of the same compound?
The value was “not quantifiable, except in a few sporadic cases”.

And the “Cmin of the compound of formula (I)” value [3]?
Its value is “below the lower limit of quantization”.

And the “plasma concentrations of the compound of formula (I)” value (from here on “plasma concentrations”) [4]?
The value was under 3 ng/mL.

What about the “mean increase in trough GLP-1 active compared with placebo” value ([5]; 3.5 mg BID, Day 10) of the same compound?
Its value is 60%.

And the “mean increase in trough PYY total compared with placebo” value ([5]; 3.5 mg BID, Day 10)?
Its value is 43%.

What about the “trough GIP total relative to placebo” value ([5]; 3.5 mg BID, Day 10) of the same compound?
The value was “no change”.

What about the “increase in GLP-1 active compared with placebo” value ([5]; Day 2) of the same compound?
The value was 38%.

What about the “increase in PYY total compared with placebo” value ([5]; Day 2) of the same compound?
The value was 44%.

What about the “increase in GLP-1 active compared with placebo” value ([5]; Day 9) of the same compound?
The value was 71%.

What about the “increase in PYY total compared with placebo” value ([5]; Day 9) of the same compound?
Its value is 42%.

And the “GIP total relative to placebo” value ([5]; 4 hours post-dinner, Day 2 and Day 9)?
Its value is “No statistically significant differences”.

And the “gut hormone AUC profiles around breakfast” value ([5]; Day 2, -0.5 to 3.5 hours relative to dosing)?
The value was “no significant changes”.

And the GIP total profile ([5]; Day 2 or Day 9)?
The GIP total profile was “No significant changes”.

What about the “average increase in GLP-1 active around breakfast” value ([5]; Day 9) of the same compound?
Its value is 38%.

And the “average increase in PYY total around breakfast” value ([5]; Day 9)?
Its value is 51%.

What about the “decrease in AUC for GIP total compared with placebo” value ([5]; Day 9, around breakfast) of the same compound?
Its value is 17%.

And the “increase in AUC for GLP-1 active compared with placebo” value ([5]; Day 9, around breakfast)?
The value was 31%.

And the “increase in AUC for PYY total compared with placebo” value ([5]; Day 9, around breakfast)?
The value was 39%.

What about the “average increase in trough PYY total” value ([5]; days 2 through 11) of the same compound?
The value was 63%.

And the “average increase in trough GIP total” value ([5]; days 3, 5 and 11)?
The value was 24%.

What about the “average increase in trough GLP-1 active” value ([5]; days 3 through 11) of the same compound?
Its value is 45%.

And the “caloric intake, meal weight consumed, VAS of hunger, prospective consumption, fullness, thirst, nausea” value [6]?
The value was “no statistically significant treatment differences”.

And the “plasma concentrations” value ([7]; 1 mg, Day 14)?
Its value is “not quantifiable”.

What about the “time up to which concentrations were quantifiable” value ([7]; 2.5 mg and 3.5 mg groups, Day 14) of the same compound?
The value was “up to 5 hr”.

What about the “subjects with quantifiable concentrations” value (“subjects” below) ([7]; 2.5 mg, Day 14) of the same compound?
The value was 2 of 8 subjects.

What about the “subjects” value ([7]; 3.5 mg, Day 14) of the same compound?
Its value is 7 of 8 subjects.

What about the “subjects” value ([7]; 5 mg, Day 14) of the same compound?
The value was 2 of 3 subjects.

What about the “time for which concentrations were quantifiable” value ([7]; 5 mg, Day 14) of the same compound?
Its value is “at least 6 hr”.

What about the “plasma concentrations” value ([7]; 1 to 5 mg, Day 1) of the same compound?
The value was “generally below the limit of quantization”.

And the “Cmax and AUC0-τ dose proportionality” value ([7]; 2.5 to 5 mg)?
Its value is “approximately dose proportional”.

What about the systemic exposure ([7]; BID for 14 days) of the same compound?
Its systemic exposure is “negligible”.

And the “parent/metabolite ratio for AUC0-τ” value ([7]; all dose levels)?
Its value is “less than 0.01”.

And the “parent/metabolite ratio for Cmax” value ([7]; all dose levels)?
The value was “less than 0.03”.

And the oral clearance ([7]; quantifiable dose groups)?
The oral clearance was “high oral clearance”.
